Experimental findings from ChEMBL document CHEMBL1141937, “Inhibition of Tpl2 kinase and TNF-alpha production with 1,7-naphthyridine-3-carbonitriles: synthesis and structure-activity relationships” (Bioorg Med Chem Lett, 2005) are described below.

Converted amounts (≈) assume the structure as drawn.

For series [1], the target named is T1, Mitogen-activated protein kinase kinase kinase 8 (Homo sapiens, UniProt P41279). Description: Inhibitory activity against human Tpl2 kinase via quantification of MEK phosphorylation. The class given is functional.
Target sequence in this assay (P41279 whole entry): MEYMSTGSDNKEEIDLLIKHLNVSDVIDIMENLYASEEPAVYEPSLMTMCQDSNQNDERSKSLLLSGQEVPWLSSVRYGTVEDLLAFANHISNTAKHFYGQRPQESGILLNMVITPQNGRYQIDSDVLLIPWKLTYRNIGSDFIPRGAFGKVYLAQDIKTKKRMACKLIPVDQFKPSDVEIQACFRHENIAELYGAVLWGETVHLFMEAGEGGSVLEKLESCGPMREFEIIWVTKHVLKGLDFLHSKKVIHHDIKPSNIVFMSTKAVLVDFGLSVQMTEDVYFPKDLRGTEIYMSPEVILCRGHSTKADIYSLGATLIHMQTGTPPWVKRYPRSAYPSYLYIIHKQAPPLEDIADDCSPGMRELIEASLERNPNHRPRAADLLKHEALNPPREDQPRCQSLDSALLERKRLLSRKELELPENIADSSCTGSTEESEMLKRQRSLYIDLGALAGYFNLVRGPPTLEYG
Series [2] concerns the target MAP kinase-activated protein kinase 2 (Homo sapiens, UniProt P49137). Description: Inhibitory activity against MK2.
Series [3] has as its target Protein kinase C (PKC). Description: Inhibitory activity against PKC. The series is classed as protein assay.
Series [4] in a line: Plasma binding to human serum albumin. The class given is ADME. As to conditions: read-out: PPB (converted).
In series [5] the target is Proto-oncogene tyrosine-protein kinase Src (Homo sapiens, UniProt P12931). Description: Inhibitory activity against Src.
Chain of Proto-oncogene tyrosine-protein kinase Src (P12931 2-536 limits assumed): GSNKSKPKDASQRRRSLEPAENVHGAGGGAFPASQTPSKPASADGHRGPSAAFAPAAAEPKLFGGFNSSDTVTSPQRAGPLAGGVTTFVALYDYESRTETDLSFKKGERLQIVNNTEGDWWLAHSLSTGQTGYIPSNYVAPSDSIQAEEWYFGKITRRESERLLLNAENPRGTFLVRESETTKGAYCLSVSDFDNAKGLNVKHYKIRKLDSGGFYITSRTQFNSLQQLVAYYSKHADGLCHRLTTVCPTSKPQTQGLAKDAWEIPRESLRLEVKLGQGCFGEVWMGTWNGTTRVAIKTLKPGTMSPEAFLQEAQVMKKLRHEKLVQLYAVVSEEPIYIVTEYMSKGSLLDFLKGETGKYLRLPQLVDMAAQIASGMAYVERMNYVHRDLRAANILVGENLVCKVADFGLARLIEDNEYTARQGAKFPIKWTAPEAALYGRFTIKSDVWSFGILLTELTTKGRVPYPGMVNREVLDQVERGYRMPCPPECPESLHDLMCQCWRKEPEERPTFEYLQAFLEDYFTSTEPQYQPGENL
A short description of series [6]: Solubility determined. The class given is physicochemical.
Series [7] addresses Dual specificity mitogen-activated protein kinase kinase 1 (Homo sapiens, UniProt Q02750). The experiment in a line: Inhibitory activity against MEK.
The target in series [8] is T1, Mitogen-activated protein kinase kinase kinase 8. Description: Inhibition of LPS-induced TNFalpha production in primary human monocytes.
Target sequence in this assay (P41279 whole entry, looked up): as the sequence (P41279 whole entry) above
For series [9] the target is unchanged. Description: Inhibition of LPS-induced TNFalpha production in human whole blood.
Target sequence in this assay (P41279 whole entry, looked up): as the sequence (P41279 whole entry) above
The target in series [10] is MAP kinase p38 (Homo sapiens, UniProt O15264+Q15759+Q16539+P53778). Description: Inhibitory activity against p38. The class given is protein assay.

Chain of MAP kinase-activated protein kinase 2 (P49137 whole entry): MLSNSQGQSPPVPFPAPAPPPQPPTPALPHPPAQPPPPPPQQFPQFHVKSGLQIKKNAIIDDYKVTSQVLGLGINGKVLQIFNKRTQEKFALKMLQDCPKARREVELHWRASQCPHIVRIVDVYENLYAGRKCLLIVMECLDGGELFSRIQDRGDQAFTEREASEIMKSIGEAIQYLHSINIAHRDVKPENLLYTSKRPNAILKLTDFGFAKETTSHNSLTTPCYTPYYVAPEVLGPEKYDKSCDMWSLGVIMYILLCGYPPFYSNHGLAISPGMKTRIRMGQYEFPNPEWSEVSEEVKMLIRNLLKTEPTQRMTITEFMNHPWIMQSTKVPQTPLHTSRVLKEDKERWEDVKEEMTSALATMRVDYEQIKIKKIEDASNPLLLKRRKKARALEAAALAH
Chain of Dual specificity mitogen-activated protein kinase kinase 1 (Q02750 whole entry): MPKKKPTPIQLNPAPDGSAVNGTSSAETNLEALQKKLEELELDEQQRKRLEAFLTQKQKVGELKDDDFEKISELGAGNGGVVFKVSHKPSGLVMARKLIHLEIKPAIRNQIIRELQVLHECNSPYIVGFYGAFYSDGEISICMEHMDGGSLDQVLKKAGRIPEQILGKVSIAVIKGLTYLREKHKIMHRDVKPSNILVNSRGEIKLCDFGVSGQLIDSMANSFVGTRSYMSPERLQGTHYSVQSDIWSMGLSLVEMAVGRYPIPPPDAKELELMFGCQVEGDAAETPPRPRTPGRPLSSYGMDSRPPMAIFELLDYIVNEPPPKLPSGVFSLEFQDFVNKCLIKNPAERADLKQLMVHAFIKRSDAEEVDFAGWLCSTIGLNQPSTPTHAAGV

One may read the IC50 as the concentration that inhibits the measured activity by half. Low readings indicate greater potency in that assay, high ones weaker potency in that assay. Molecule `CN1CCN(CCCNc2cc3c(Nc4ccc(F)c(Cl)c4)c(C#N)cnc3cn2)CC1` showed an IC50 in series [1] of 21 µM.

Regarding `CC[C@H](Nc1cc2c(Nc3ccc(F)c(Cl)c3)c(C#N)cnc2cn1)c1ccccc1`, the IC50 in series [1] was above 40 µM.

In turn, `N#Cc1cnc2cnc(NCCCN3CCOCC3)cc2c1Nc1ccc(F)c(Cl)c1` returned an IC50 in series [1] of 3.4 µM.

The solubility is the concentration that dissolves in the medium under given conditions. For `N#Cc1cnc2cnc(NCCN3CCOCC3)cc2c1Nc1ccc(Oc2ccccc2)cc1`, the IC50 in series [2] is above 400 µM; in series [1], 0.38 µM; in series [3], 200 µM; in series [5], 90 µM; in [7] it was 800 nM. Further, the fraction unbound in series [4] was below 0.01. Besides, the solubility in series [6] (read-out: Solubility) is 1 µg/mL (≈ 2.14 µM).

In [1], `N#Cc1cnc2cnc(NCCN3CCOCC3)cc2c1NCc1ccc(F)c(Cl)c1` showed an IC50 above 40 µM.

In series [1], `N#Cc1cnc2cnc(NCc3ccccc3)cc2c1Nc1ccc(F)c(Cl)c1` gave a half-maximal inhibitory concentration (IC50) of 0.073 µM.

In the case of `N#Cc1cnc2cnc(NCCN3CCOCC3)cc2c1Nc1ccc(Sc2ccccc2)cc1`, the IC50 in [2] is above 400 µM; in [3], above 400 µM; in series [5] it was 3 µM; in series [7], 960 nM. In addition, in series [4], the fraction unbound was below 0.01. For the same molecule, in series [6] (read-out: Solubility), the solubility turned out to be 1 µg/mL (≈ 2.07 µM).

In series [1], `C[C@H](Nc1cc2c(Nc3ccc(F)c(Cl)c3)c(C#N)cnc2cn1)c1ccccc1` displayed an IC50 of 27 µM.

`N#Cc1cnc2cnc(NC(CN3CCOCC3)c3ccccc3)cc2c1Nc1ccc(F)c(Cl)c1` (stereo unspecified) gave an IC50 in series [1] of 1.8 µM.

With `N#Cc1cnc2cnc(NCCN3CCOCC3)cc2c1Nc1ccc(F)c(Cl)c1`, the 50% inhibitory concentration (IC50) in series [2] is above 400 µM; in series [3], 30 µM; in series [5], 40 µM; in series [7], 15000 nM. In addition, the fraction unbound in [4] is 0.15. The solubility in series [6] (read-out: Solubility) is 64 µg/mL (≈ 150 µM).

Regarding `N#Cc1cnc2cnc(NCCN3CCOCC3)cc2c1Nc1ccc(Cc2ccccc2)cc1`, the IC50 is above 400 µM in series [2]; 0.002 µM in series [1]; 0.8 µM in series [8]; 13.6 µM in [9]; above 400 µM in series [3]; above 400 µM in series [10]. Moreover, the values for the IC50 in series [5] and in series [7] were 4 µM and 630 nM, respectively. For the same molecule, the fraction unbound in series [4] is 0.01. Besides, the solubility entry in [6] is “Insoluble”.

Consider `N#Cc1cnc2cnc(NCCN3CCOCC3)cc2c1Nc1ccc(Cl)cc1`, for which the IC50 in series [1] was above 40 µM.

On to `N#Cc1cnc2cnc(NCCCN3CCCC3)cc2c1Nc1ccc(F)c(Cl)c1`, for which the IC50 in series [1] stood at 3.57 µM.

In the case of `N#Cc1cnc2cnc(NCCN3CCOCC3)cc2c1Nc1ccc(Cl)cc1F`, the IC50 in series [1] is 10 µM.

On to `N#Cc1cnc2cnc(NCc3cccnc3)cc2c1Nc1ccc(F)c(Cl)c1`, for which the IC50 is 110 µM in series [2], above 400 µM in series [3], above 400 µM in series [5] and above 40000 nM in series [7]. Moreover, in series [4], the fraction unbound was 0.02. The solubility in [6] (read-out: Solubility) was 2 µg/mL (≈ 4.94 µM).

Turning to `N#Cc1cnc2cnc(NCCN3CCOCC3)cc2c1Nc1ccc(S(=O)(=O)c2ccccc2)cc1`, the IC50 in series [1] is above 40 µM.

In the case of `N#Cc1cnc2cnc(NCCN3CCOCC3)cc2c1Nc1ccc(C(F)(F)F)cc1`, the 50% inhibitory concentration (IC50) in [1] is above 40 µM.

`CN(Cc1ccccc1)c1cc2c(Nc3ccc(F)c(Cl)c3)c(C#N)cnc2cn1` displayed an IC50 in series [1] above 40 µM.

With `N#Cc1cnc2cnc(NCCN3CCOCC3)cc2c1Nc1ccc(Cl)c(Cl)c1`, the IC50 in series [1] was determined as 10 µM.

`Cc1c(Br)cccc1Nc1c(C#N)cnc2cnc(NCCN3CCOCC3)cc12` registered a half-inhibitory concentration (IC50) in series [1] above 40 µM.

As for `N#Cc1cnc2cnc(NC3CCCC3)cc2c1Nc1ccc(F)c(Cl)c1`, in series [1], the IC50 was above 40 µM.
